# Measurements: patent publication US5104869A, “Renin inhibitors” (American Cyanamid Company, priority 1990, dated 1992)
# Molecular target: T1, human kidney renin (Homo sapiens, UniProt P00797)
# T1 construct: Human renin was prepared from human kidney; from tissue; host or cells: human kidney
# T1 sequence (P00797 67-406): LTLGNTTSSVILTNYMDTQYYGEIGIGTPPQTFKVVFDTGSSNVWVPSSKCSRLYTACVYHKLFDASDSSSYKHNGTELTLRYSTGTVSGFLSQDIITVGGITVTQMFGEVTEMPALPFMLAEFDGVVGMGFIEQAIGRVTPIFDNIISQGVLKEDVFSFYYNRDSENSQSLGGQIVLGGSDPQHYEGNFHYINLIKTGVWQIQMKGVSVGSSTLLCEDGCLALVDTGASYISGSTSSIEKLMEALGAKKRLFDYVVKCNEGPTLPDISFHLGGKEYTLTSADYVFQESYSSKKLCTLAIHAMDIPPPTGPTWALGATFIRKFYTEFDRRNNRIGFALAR
# Test: Radioimmunoassay Screen for Renin Inhibitors (in vitro angiotensin I generation, quantitated by radioimmunoassay)
# Format: biochemical
# Conditions: purified human plasma angiotensinogen, pH 6.0, one hour at 37° C., read-out: Renin Inhibiton IC50
# Method: The in vitro method for the screening of anti-renin compounds involves, first, angiotensin I generation, and second, the quantitation of the angiotensin I produced by radioimmunoassay.
# The incubation medium consisted of 20 μl of purified human plasma angiotensinogen (1); 10 μl of human kidney renin (2); 5 μl of phenylmethylsulfonyl fluoride; 10 μl of disodium EDTA (10 mM); 10 μl of antirenin compound (5×10^-3, 5×10^-4, 5×10^-5) in dimethylformamide, or ethanol and a suitable amount of maleate buffer (77 mM, pH 6.0) to make a final volume of 500 μl. The reaction mixture was incubated for one hour at 37° C. and the enzymatic reaction was stopped by placing the tube in ice-cold water. The angiotensin I generated during the incubation was measured by a radioimmunoassay plasma renin activity kit (Clinical Assays, Inc.).
# The incubation medium consisted of either 100 μl aliquots of the above reaction mixture or a standard amount of angiotensin I; 1000 μl of phosphate buffer (100 mM, pH 7.6) and 100 μl of (^125 I)angiotensinin a gamma-coat, tube. After three hours of incubation at room temperature, the tubes were decanted, and the radioactivity of each tube was determined in a gamma counter. Duplicate determinations were performed for each incubation. The results were expressed in ng of angiotensin I generated per ml of generation medium per hour of incubation (ng/AI/ml/hr).
# (1) The human plasma angiotensinogen derived from the blood of a person receiving oral contraceptive pills was purified by chromatography on a pepstatinaminohexyl-agarose column.
# (2) Human renin was prepared from human kidney.
row,IC50,SMILES
1,260 nM,O=C(N[C@@H](Cc1cnc[nH]1)C(=O)N[C@@H](CC1CCCCC1)[C@@H](O)c1ccccn1)[C@@H](CC(=O)N1CCOCC1)Cc1cccc2ccccc12
2,130 nM,CC(C)C[C@H](NC(=O)[C@@H](CC(=O)NCCCN1CCCC1=O)Cc1ccccc1)C(=O)N[C@@H](CC1CCCCC1)[C@@H](O)c1ccccn1
3,1700 nM,COCCNC(=O)O[C@@H](Cc1ccccc1)C(=O)N[C@@H](CC(C)C)C(=O)N[C@@H](CC1CCCCC1)[C@@H](O)c1ccco1
4,410 nM,COC(CNC(=O)C[C@@H](Cc1cccc2ccccc12)C(=O)N[C@@H](CC(C)C)C(=O)N[C@@H](CC(C)C)[C@@H](O)c1nccs1)OC
